{
  "source": "patent US6525001B1",
  "about": "“Substituted pyrimidine and pyridine herbicides” (Mid-American Commercialization Corporation, priority 1997, dated 2003)",
  "format_in_all_cases": "in vivo",
  "key": {"[1]": {"system": "large crabgrass (Digitaria sanguinalis)", "assay": "Test C", "design": "key: 0 was no effect; 100 was complete control", "conditions": "PREEMERGENCE"}, "[2]": {"system": "bermudagrass (Cynodon dactylon)", "assay": "Test E pre-/postemergence/post directed", "outline": "(§1)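 Injury scored visually on a 0–100 scale (100 = complete control) 13 to 21 days after treatment. Test chemicals, formulated with surfactant in non-phytotoxic solvent, were applied to soil within one day of planting, to plants at two to four leaves (three to twenty cm), or as directed spray at plant base.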"}, "[3]": {"system": "large crabgrass (Digitaria sanguinalis)", "assay": "Test E pre-/postemergence/post directed", "outline": "as §1"}, "[4]": {"system": "itchgrass (Rottboellia exaltata)", "assay": "Test E pre-/postemergence/post directed", "outline": "as §1"}, "[5]": {"system": "Spanishneedles (Bidens bipinnata)", "assay": "Test E pre-/postemergence/post directed", "outline": "as §1"}, "[6]": {"system": "common ragweed (Ambrosia elatior)", "assay": "Test E pre-/postemergence/post directed", "outline": "as §1"}, "[7]": {"system": "sandbur (Cenchrus echinatus)", "assay": "Test E pre-/postemergence/post directed", "outline": "as §1"}, "[8]": {"system": "cocklebur (Xanthium strumarium)", "assay": "Test C", "conditions": "PREEMERGENCE, Rate 140 g/ha"}, "[9]": {"system": "common ragweed (Ambrosia elatior)", "assay": "Test C", "conditions": "PREEMERGENCE"}, "[10]": {"system": "fall panicum (Panicum dichotomiflorum)", "assay": "Test C", "design": "key: 0 was no effect; 100 was complete control", "conditions": "PREEMERGENCE"}, "[11]": {"system": "guineagrass (Panicum maximum)", "assay": "Test E pre-/postemergence/post directed", "design": "key: 0 is no effect; 100 is complete control", "outline": "as §1"}, "[12]": {"system": "dallisgrass (Paspalum dilatatum)", "assay": "Test E pre-/postemergence/post directed", "design": "key: 0 is no effect; 100 is complete control", "outline": "as §1"}, "[13]": {"system": "goosegrass (Eleusine indica)", "assay": "Test E pre-/postemergence/post directed", "design": "key: 0 is no effect; 100 is complete control", "outline": "as §1"}, "[14]": {"system": "common ragweed (Ambrosia elatior)", "assay": "Test E pre-/postemergence/post directed", "design": "key: 0 is no effect; 100 is complete control", "conditions": "PREEMERGENCE", "outline": "as §1"}, "[15]": {"system": "barnyardgrass (Echinochloa crus-galli)", "assay": "Test C", "design": "key: 0 was no effect; 100 was complete control", "conditions": "PREEMERGENCE"}, "[16]": {"system": "arrowleaf sida (Sida rhombifolia)", "assay": "Test C", "design": "key: 0 was no effect; 100 was complete control", "conditions": "PREEMERGENCE"}, "[17]": {"system": "velvetleaf (Abutilon theophrasti)", "assay": "Test C", "conditions": "PREEMERGENCE"}, "[18]": {"system": "giant foxtail (Setaria faberii)", "assay": "Test C", "design": "key: 0 was no effect; 100 was complete control", "conditions": "PREEMERGENCE"}, "[19]": {"system": "ladysthumb smartweed (Polygonum persicaria)", "assay": "Test C", "conditions": "PREEMERGENCE"}, "[20]": {"system": "redroot pigweed (Amaranthus retroflexus)", "assay": "Test C", "design": "key: 0 was no effect; 100 was complete control", "conditions": "PREEMERGENCE"}},
  "data": [
    {"compound": "COc1cnc(-c2ccc(C(F)(F)F)cc2)nc1Cc1cccc(C(F)(F)F)c1", "note": "[Compound 23]", "values": [
      {"measurement": "Plant response rating, Large crabgrass", "setting": "[1]; Rate 35 g/ha", "value": 100},
      {"measurement": "Plant response rating, Large crabgrass", "setting": "[1]; Rate 70 g/ha", "value": 100},
      {"measurement": "Plant response rating, Large crabgrass", "setting": "[1]; Rate 140 g/ha", "value": 100},
      {"measurement": "Plant response rating, Bermudagrass", "setting": "[2]; POSTEMERGENCE, Rate 250 g/ha", "value": 10},
      {"measurement": "Plant response rating, Bermudagrass", "setting": "[2]; PREEMERGENCE, Rate 32 g/ha", "value": 90},
      {"measurement": "Plant response rating, Bermudagrass", "setting": "[2]; PREEMERGENCE, Rate 64 g/ha", "value": 98},
      {"measurement": "Plant response rating, Bermudagrass", "setting": "[2]; PREEMERGENCE, Rate 125 g/ha", "value": 98},
      {"measurement": "Plant response rating, Bermudagrass", "setting": "[2]; PREEMERGENCE, Rate 250 g/ha", "value": 98},
      {"measurement": "Plant response rating, Large crabgrass", "setting": "[3]; POSTEMERGENCE, Rate 250 g/ha", "value": 40},
      {"measurement": "Plant response rating, Large crabgrass", "setting": "[3]; PREEMERGENCE, Rate 32 g/ha", "value": 98},
      {"measurement": "Plant response rating, Large crabgrass", "setting": "[3]; PREEMERGENCE, Rate 64 g/ha", "value": 98},
      {"measurement": "Plant response rating, Itchgrass", "setting": "[4]; POSTEMERGENCE, Rate 250 g/ha", "value": 80},
      {"measurement": "Plant response rating, Itchgrass", "setting": "[4]; PREEMERGENCE, Rate 32 g/ha", "value": 30},
      {"measurement": "Plant response rating, Itchgrass", "setting": "[4]; PREEMERGENCE, Rate 64 g/ha", "value": 60},
      {"measurement": "Plant response rating, Itchgrass", "setting": "[4]; PREEMERGENCE, Rate 125 g/ha", "value": 70},
      {"measurement": "Plant response rating, Itchgrass", "setting": "[4]; PREEMERGENCE, Rate 250 g/ha", "value": 70},
      {"measurement": "Plant response rating, Spanishneedles", "setting": "[5]; POSTEMERGENCE, Rate 250 g/ha", "value": 10},
      {"measurement": "Plant response rating, Spanishneedles", "setting": "[5]; PREEMERGENCE, Rate 32 g/ha", "value": 60},
      {"measurement": "Plant response rating, Spanishneedles", "setting": "[5]; PREEMERGENCE, Rate 64 g/ha", "value": 70},
      {"measurement": "Plant response rating, Com. ragweed", "setting": "[6]; POSTEMERGENCE, Rate 250 g/ha", "value": 40},
      {"measurement": "Plant response rating, Com. ragweed", "setting": "[6]; PREEMERGENCE, Rate 32 g/ha", "value": 50},
      {"measurement": "Plant response rating, Com. ragweed", "setting": "[6]; PREEMERGENCE, Rate 64 g/ha", "value": 70},
      {"measurement": "Plant response rating, Sandbur", "setting": "[7]; POSTEMERGENCE, Rate 250 g/ha", "value": 20},
      {"measurement": "Plant response rating, Sandbur", "setting": "[7]; PREEMERGENCE, Rate 32 g/ha", "value": 85},
      {"measurement": "Plant response rating, Sandbur", "setting": "[7]; PREEMERGENCE, Rate 64 g/ha", "value": 80},
      {"measurement": "Plant response rating, Sandbur", "setting": "[7]; PREEMERGENCE, Rate 125 g/ha", "value": 80},
      {"measurement": "Plant response rating, Sandbur", "setting": "[7]; PREEMERGENCE, Rate 250 g/ha", "value": 98},
      {"measurement": "Plant response rating, Cocklebur", "setting": "[8]", "value": 5},
      {"measurement": "Plant response rating, Common ragweed", "setting": "[9]; Rate 35 g/ha", "value": 10},
      {"measurement": "Plant response rating, Common ragweed", "setting": "[9]; Rate 70 g/ha", "value": 30},
      {"measurement": "Plant response rating, Common ragweed", "setting": "[9]; Rate 140 g/ha", "value": 90},
      {"measurement": "Plant response rating, Fall panicum", "setting": "[10]; Rate 35 g/ha", "value": 55},
      {"measurement": "Plant response rating, Fall panicum", "setting": "[10]; Rate 70 g/ha", "value": 100},
      {"measurement": "Plant response rating, Fall panicum", "setting": "[10]; Rate 140 g/ha", "value": 100},
      {"measurement": "Plant response rating, Guineagrass", "setting": "[11]; POSTEMERGENCE, Rate 250 g/ha", "value": 75},
      {"measurement": "Plant response rating, Guineagrass", "setting": "[11]; PREEMERGENCE, Rate 32 g/ha", "value": 80},
      {"measurement": "Plant response rating, Guineagrass", "setting": "[11]; PREEMERGENCE, Rate 64 g/ha", "value": 98},
      {"measurement": "Plant response rating, Guineagrass", "setting": "[11]; PREEMERGENCE, Rate 125 g/ha", "value": 98},
      {"measurement": "Plant response rating, Guineagrass", "setting": "[11]; PREEMERGENCE, Rate 250 g/ha", "value": 100},
      {"measurement": "Plant response rating, Dallisgrass", "setting": "[12]; POSTEMERGENCE, Rate 250 g/ha", "value": 40},
      {"measurement": "Plant response rating, Dallisgrass", "setting": "[12]; PREEMERGENCE, Rate 32 g/ha", "value": 80},
      {"measurement": "Plant response rating, Dallisgrass", "setting": "[12]; PREEMERGENCE, Rate 64 g/ha", "value": 85},
      {"measurement": "Plant response rating, Dallisgrass", "setting": "[12]; PREEMERGENCE, Rate 125 g/ha", "value": 90},
      {"measurement": "Plant response rating, Dallisgrass", "setting": "[12]; PREEMERGENCE, Rate 250 g/ha", "value": 100},
      {"measurement": "Plant response rating, Goosegrass", "setting": "[13]; POSTEMERGENCE, Rate 250 g/ha", "value": 75},
      {"measurement": "Plant response rating, Goosegrass", "setting": "[13]; PREEMERGENCE, Rate 32 g/ha", "value": 98},
      {"measurement": "Plant response rating, Goosegrass", "setting": "[13]; PREEMERGENCE, Rate 64 g/ha", "value": 98},
      {"measurement": "Plant response rating, Goosegrass", "setting": "[13]; PREEMERGENCE, Rate 125 g/ha", "value": 98},
      {"measurement": "Plant response rating, Goosegrass", "setting": "[13]; PREEMERGENCE, Rate 250 g/ha", "value": 100},
      {"measurement": "Plant response rating, Com. ragweed", "setting": "[14]; Rate 125 g/ha", "value": 100},
      {"measurement": "Plant response rating, Com. ragweed", "setting": "[14]; Rate 250 g/ha", "value": 100},
      {"measurement": "Plant response rating, Barnyardgrass", "setting": "[15]; Rate 35 g/ha", "value": 0},
      {"measurement": "Plant response rating, Barnyardgrass", "setting": "[15]; Rate 70 g/ha", "value": 5},
      {"measurement": "Plant response rating, Barnyardgrass", "setting": "[15]; Rate 140 g/ha", "value": 10},
      {"measurement": "Plant response rating, Arrowleaf sida", "setting": "[16]; Rate 35 g/ha", "value": 80},
      {"measurement": "Plant response rating, Arrowleaf sida", "setting": "[16]; Rate 70 g/ha", "value": 100},
      {"measurement": "Plant response rating, Arrowleaf sida", "setting": "[16]; Rate 140 g/ha", "value": 100},
      {"measurement": "Plant response rating, Velvetleaf", "setting": "[17]; Rate 35 g/ha", "value": 50},
      {"measurement": "Plant response rating, Velvetleaf", "setting": "[17]; Rate 140 g/ha", "value": 50},
      {"measurement": "Plant response rating, Giant foxtail", "setting": "[18]; Rate 35 g/ha", "value": 85},
      {"measurement": "Plant response rating, Giant foxtail", "setting": "[18]; Rate 70 g/ha", "value": 100},
      {"measurement": "Plant response rating, Giant foxtail", "setting": "[18]; Rate 140 g/ha", "value": 100},
      {"measurement": "Plant response rating, Ladysthumb", "setting": "[19]; Rate 35 g/ha", "value": 5},
      {"measurement": "Plant response rating, Ladysthumb", "setting": "[19]; Rate 70 g/ha", "value": 80},
      {"measurement": "Plant response rating, Ladysthumb", "setting": "[19]; Rate 140 g/ha", "value": 80},
      {"measurement": "Plant response rating, Redroot pigweed", "setting": "[20]; Rate 35 g/ha", "value": 100},
      {"measurement": "Plant response rating, Redroot pigweed", "setting": "[20]; Rate 70 g/ha", "value": 100},
      {"measurement": "Plant response rating, Redroot pigweed", "setting": "[20]; Rate 140 g/ha", "value": 100}
    ]}
  ]
}
